Data taken from patent US9468680B2, “Differential effects of drugs on transport in a multi-layer 3D spheroid model” (Brown University, priority 2011, dated 2016).
Where a name gives a salt, the structure may show the parent alone.

Tests used:
Pgp [1] = molecular target: T1, Pgp (Homo sapiens, UniProt P08183); assay: cell-based
Experimental: (§1) KGN cells, a human granulosa cell line, were grown in DMEM^29. OVCAR-3 and SK-OV-3 cells were grown in Roswell Park Memorial Institute medium (RPMI; Invitrogen). Both media were supplemented with 10% fetal bovine serum (FBS) (Thermo Fisher Scientific, Waltham, Mass.) and 1% penicillin/streptomycin and grown at 37° C. and 10% CO2. Cells were trypsinized using 0.05% trypsin and resuspended to the desired cell concentration. Spheroids that were pre-stained were formed from cells incubated with 5 μM CellTracker™ Red CMPTX, CellTracker™ Green CMFDA, or CellTracker™ Blue CMAC (Invitrogen) in serum-free DMEM for 1 hour prior to trypsinization. 75 μl of the cell suspension was pipetted into the seeding chamber of each gel. Cells were allowed to settle for 20 minutes and 4 mL of medium was added. Cells self-assembled for 24 hours to form spheroids before experimentation.
(§2) Quantitative image analysis was performed using a custom MATLAB (Mathworks, Natick, Mass.) program. Briefly, fifty evenly spaced radii were drawn across each spheroid and fluorescence at each pixel was averaged. […] Total spheroid fluorescence was determined by the integration of the fluorescent profiles (Equation 2). To compare data across experiments, we normalized the spheroids to the fluorescence per depth of single cells at the final time point.
(§3) To measure uptake of calcein-AM and transport of calcein, medium was removed from the hydrogels containing self-assembled KGN spheroids (24 hours), and replaced with serum-free DMEM containing 1 μM calcein-AM (Invitrogen). […] Images were taken once per hour for 11 hours, at 37° C. and 10% CO2.
(§4) Hydrogels were equilibrated with a drug-containing medium overnight at 37° C. and 10% CO2, and spheroids were self-assembled for 24 hours in their respective drug concentration. […] A working solution of carbenoxolone (Sigma) was prepared by diluting appropriate volumes of a 10 mM stock solution into serum-free medium. Spheroids were assembled for 24 hours and then pretreated with carbenoxolone for 5 hours prior to adding calcein-AM for the uptake assay. Medium containing drug and calcein-AM were used for the uptake assay.

gap junctions = molecular target: T2, gap junctions (Homo sapiens, UniProt P17302); assay: transport of calcein from outer shell to core of KGN spheroids (compartmentalization analysis); type: cell-based
T2 construct: endogenous in cells; host or cells: KGN human granulosa cell line, self-assembled 3D spheroids
Experimental: as §1, §2, §3, §4
To deconvolve this fluorescent signal into an average 3D radial profile, the spheroid was estimated as a series of concentric spheres (multi-layers). Each layer (shell) was 14 μm in width and contained a homogenous concentration of fluorescent calcein (FIGS. 3C and D). The total fluorescence f(i) at X, layer is sum of the fluorescence contribution from all shells at Xi. Mathematically, the total fluorescence can be written as
[formula] Here, fnorm(j) is the fluorescence/height in the i^th shell and h(i, j) is the height at point (Xi, Yj). Note h(i, i)=0 lies at the centerline of the spheroid. […] Equation (4) results in the following iterative formula: […]
The inner core was taken as about≧14 μm from the center in the smallest dimension to ensure the core contained whole cells.

KGN spheroids = assay: loss of calcein from calcein-loaded KGN spheroids; type: cell-based, human; details: after 135 minutes calcein-AM loading
Experimental: To measure uptake of calcein-AM and transport of calcein, medium was removed from the hydrogels containing self-assembled KGN spheroids (24 hours), and replaced with serum-free DMEM containing 1 μM calcein-AM (Invitrogen). Fluorescent imaging of calcein began immediately and images were taken at regular intervals over 135 minutes at 37° C. and 10% CO2. To measure loss or loss of calcein, hydrogels containing KGN spheroids that had been incubated with calcein-AM for 135 minutes, thus loading the spheroids with calcein, were rinsed with DMEM and incubated in DMEM without calcein-AM. Images were taken once per hour for 11 hours, at 37° C. and 10% CO2.

Pgp [2] = molecular target: T1, Pgp; details: 2D, calcein-AM assay, concentrations ranging from 1-100 μM; cited from earlier work
[3] = 1 μM calcein-AM, 75 minutes, n=15
[4] = 5 μM drug, 1 μM calcein-AM, 110 minutes
[5] = 5 μM drug, normalized data, 110 minutes

T1 sequence (P08183 whole entry): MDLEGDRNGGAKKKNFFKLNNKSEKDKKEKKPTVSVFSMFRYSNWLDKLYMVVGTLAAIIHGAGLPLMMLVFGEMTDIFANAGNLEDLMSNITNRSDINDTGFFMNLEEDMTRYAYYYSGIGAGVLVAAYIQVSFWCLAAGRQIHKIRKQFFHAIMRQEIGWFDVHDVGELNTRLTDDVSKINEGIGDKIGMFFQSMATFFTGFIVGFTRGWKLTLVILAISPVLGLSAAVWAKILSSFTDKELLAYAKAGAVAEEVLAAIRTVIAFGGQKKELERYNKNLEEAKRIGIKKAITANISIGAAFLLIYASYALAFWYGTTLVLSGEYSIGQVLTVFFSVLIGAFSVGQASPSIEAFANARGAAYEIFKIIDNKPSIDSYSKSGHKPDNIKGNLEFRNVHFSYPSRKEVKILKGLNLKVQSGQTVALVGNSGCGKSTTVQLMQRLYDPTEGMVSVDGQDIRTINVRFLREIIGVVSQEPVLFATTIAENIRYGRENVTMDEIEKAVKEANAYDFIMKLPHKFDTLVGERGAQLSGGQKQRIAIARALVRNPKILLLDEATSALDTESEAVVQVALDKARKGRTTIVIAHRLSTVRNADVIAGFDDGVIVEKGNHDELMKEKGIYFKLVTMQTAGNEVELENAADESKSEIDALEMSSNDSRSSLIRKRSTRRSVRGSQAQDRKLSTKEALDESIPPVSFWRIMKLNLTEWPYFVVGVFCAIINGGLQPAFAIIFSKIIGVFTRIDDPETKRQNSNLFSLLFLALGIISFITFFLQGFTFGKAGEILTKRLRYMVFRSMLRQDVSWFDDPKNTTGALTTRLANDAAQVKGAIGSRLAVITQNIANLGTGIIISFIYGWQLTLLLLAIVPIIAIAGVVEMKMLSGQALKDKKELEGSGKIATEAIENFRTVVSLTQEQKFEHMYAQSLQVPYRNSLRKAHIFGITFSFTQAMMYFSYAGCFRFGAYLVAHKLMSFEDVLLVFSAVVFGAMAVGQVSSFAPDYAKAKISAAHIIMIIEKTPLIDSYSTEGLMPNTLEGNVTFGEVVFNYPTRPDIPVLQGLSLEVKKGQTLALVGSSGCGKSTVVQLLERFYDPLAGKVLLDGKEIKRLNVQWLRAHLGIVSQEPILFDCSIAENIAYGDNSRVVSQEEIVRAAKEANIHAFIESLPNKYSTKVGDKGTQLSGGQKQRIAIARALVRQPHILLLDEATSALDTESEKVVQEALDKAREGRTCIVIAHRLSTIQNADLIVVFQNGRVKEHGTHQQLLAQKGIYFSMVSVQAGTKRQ
T2 sequence (P17302 2-382 limits assumed): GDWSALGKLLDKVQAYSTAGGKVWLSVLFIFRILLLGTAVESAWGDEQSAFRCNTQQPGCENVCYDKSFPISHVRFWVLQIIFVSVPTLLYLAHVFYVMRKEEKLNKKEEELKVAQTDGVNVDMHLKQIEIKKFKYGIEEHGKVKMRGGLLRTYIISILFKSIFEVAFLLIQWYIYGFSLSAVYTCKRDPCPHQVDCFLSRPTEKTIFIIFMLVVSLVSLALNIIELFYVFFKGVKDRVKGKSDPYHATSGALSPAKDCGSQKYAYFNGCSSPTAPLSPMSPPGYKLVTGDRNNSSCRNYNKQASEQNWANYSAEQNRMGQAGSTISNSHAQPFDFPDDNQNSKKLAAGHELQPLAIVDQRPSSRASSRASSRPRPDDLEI

IC50 (Pgp [1]) | calcein in the outer shell, fold higher than controls (Pgp [1]; human, 135 min, 100 μM) | percentage of calcein in the core compared to controls (gap junctions; [3]) | percentage of calcein in the outer shell compared to controls (gap junctions; [3]) | IC50 (gap junctions; 1 μM calcein-AM, 75 minutes, read-out: half-maximal response, inhibition of gap junctions (fraction of calcein compartmentalized to outer shell)) | calcein in the core, fold less than controls (gap junctions; CBX 100 μM, 1 μM calcein-AM, 135 minutes) | percentage of calcein in the core (gap junctions; CBX 100 μM, 135 minutes, n=18, untreated 15±3%) | percentage of calcein in the outer shell (gap junctions; CBX 100 μM, 135 minutes, n=18, untreated 27±3%) | SMILES | effect on loss of total spheroid calcein (KGN spheroids) | initial rate of calcein loss from the outer shell (KGN spheroids; drug-free medium, control 17±3% per hour, p<0.05) | calcein in the outer shell compared to untreated controls (Pgp [1]; [4]) | total concentration of calcein in the spheroids compared to untreated controls (Pgp [1]; [4]) | calcein concentration in the core of the spheroid compared to untreated (gap junctions; [4]) | percentage of calcein in the core compared to control (gap junctions; [5]) | percentage of calcein in the outer most shell compared to control (gap junctions; [5]) | percent maximum inhibition (Pgp [2])
81 µM | 3 fold | reduced | increased | 9.4 µM | 8 fold | 0.5±2% | 52±4% | CC1(C)[C@@H](OC(=O)CCC(=O)O)CC[C@]2(C)[C@H]3C(=O)C=C4[C@@H]5C[C@@](C)(C(=O)O)CC[C@]5(C)CC[C@@]4(C)[C@]3(C)CC[C@@H]12 [carbenoxolone] | no effect | 13±1 % per hour | – | – | – | – | – | –
– | – | – | – | – | – | – | – | CN(C)C(=O)C(CCN1CCC(O)(c2ccc(Cl)cc2)CC1)(c1ccccc1)c1ccccc1 [loperamide, loperamide hydrochloride] | – | – | significantly increased | significantly increased | did not increase | decreased | increased | 76.3%
